In patent US20220133729A1, “COMPOSITIONS AND METHODS FOR TREATING BASAL FOREBRAIN DISEASE” (EIP Pharma, Inc., priority 2019, published 2022):

Legend:
Ts2 mice = Ts2 mice treated 28 days with neflamapimod; medial septal nucleus ChAT+ neurons quantitated; type: in vivo; conditions: 3 mg/kg twice-daily
Experimental: Wild-type (WT) or Ts2 mice treated for 28 days, twice-daily, with vehicle (1% PluronicF108) or 3 mg/kg neflamapimod in vehicle (n=8-10 per group; 1:1 female/male). Treatment initiated at 4.7-6.4 months of age, when cholinergic neuronal loss is developing in Ts2 mice. Cortical Rab5+ endosomal number and size, and medial septal nucleus (MSN) cholineacetyltransferase (ChAT)+ neurons quantitated.

subjects with DLB = assay: Phase 2 randomized, double-blind, placebo-controlled study of neflamapimod in subjects with DLB; type: in vivo, human; conditions: DLB patients
Text: A Phase 2, multi-center, randomized, double-blind, placebo-controlled study is run of neflamapimod versus matching placebo (randomized 1:1) administered with food for 16 weeks in subjects with DLB. The primary objective is to evaluate the effect of neflamapimod on cognitive function as assessed in a study-specific COGSTATE Neuropsychological Test Battery (NTB). Secondary endpoints include the Clinical Dementia Rating Scale-Sum of Boxes (CDR-SB), Mini-Mental State Examination (MMSE), Neuropsychiatric Inventory (NPI-10), Timed Up and Go Test, and electroencephalogram (EEG) as a potential biomarker for DLB.
Neflamapimod 40 mg capsules are administered orally, BID or TID with food for 16 weeks; subjects will follow the BID regimen if weighing <80 kg or the TID regimen if weighing ≥80 kg. A placebo comparator is 40 mg matching placebo capsules administered orally, BID or TID with food for 16 weeks; subjects will follow the BID regimen if weighing <80 kg or the TID regimen if weighing ≥80 kg.
A primary outcome measure is a composite score of a study-specific COGSTATE Neurological Test Battery (NTB) including the COGSTATE Letter Fluency Test and Category Fluency Test at 16 weeks. A change from Baseline to Week 16 in the composite score of a study-specific Cog-state Neurological Test Battery (NTB), including assessments of attention, executive function, and visuospatial function in neflamapimod treated-subjects as compared to the placebo-treated subjects, are analyzed using the Mixed Model Repeated Measures (MMRM) analysis method. The following six tests are included in the composite: (1) COGSTATE Detection test (DET), (2) COGSTATE Identification test (IDN), (3) COGSTATE One Card Learning test (OCL), (4) COGSTATE One Back test (ONB), (5) Letter Fluency Test, (6) Category Fluency Test (CFT). Each score on the individual tests will be converted to a z-score, and then a total z-score will be calculated, in which each test is weighted equally. The change in total z-score in neflamapimod vs. placebo-recipients is analyzed. […]

SMILES: O=c1ncn2nc(Sc3ccc(F)cc3F)ccc2c1-c1c(Cl)cccc1Cl [neflamapimod]
- cholinergic neuron degeneration in the medial septal nucleus (Ts2 mice): ameliorated
- morphology (size) of ChAT+ neurons in the medial septal nucleus (MSN) (Ts2 mice; oral): normalizes
- ChAT-positive neuron number in the medial septal nucleus (Ts2 mice; oral, stereological quantification): normalizes
- Mean change from baseline to Week 8, MMSE (subjects with DLB; 40 mg TID dosing regimen, increase represents improvement, p=0.033 vs placebo): +1.07
- Mean change from baseline to Week 4, Letter Fluency Test (LFT) (subjects with DLB; 40 mg capsules BID or TID, increase represents improvement, p=0.027 vs placebo, preliminary assessment): +3.0
- Mean change from baseline to Week 4, COGSTATE Detection test (DET) (subjects with DLB; 40 mg capsules BID or TID, reduction represents improvement, p=0.031 vs placebo, preliminary assessment): −0.024
